Experiments:
Type in all cases: in vivo, human
[1] = Malabsorption Blood Test (MBT): serum levels of PA and HA after oral PA and THA test breakfast meal in healthy control subjects
Method: (§1) Both whole post-absorptive serum and isolated chylomicron fractions of the serum are analyzed for fatty acid composition. Chylomicrons are isolated from plasma by centrifugation at d=1.006 g/ml for 30 minutes at 26,000 g (Hatch, F. T., et al., 1968; Adv. Lipid Res., 6:1-68). Total lipids are extracted from each specimen following the method of Bligh and Dyer (Bligh, E. G., et al., 1959; Can. J. Biochem., 37:911-917). Following transmethylation of the lipid extracts using BF3-methanol, fatty acid composition is determined using gas-liquid chromatographic (GLC) analysis using a Hewlett Packard GLC equipped with a flame ionization detector, an automatic 7673 sampler and […]×0.25 mm ID column composed of a 0.20 micron film of SP-2560 (Supelco, Bellefonte, Pa.) (Morrison, W., et al., 1964; J. Lipid Res. 5:600-608). The temperature is programmed to change from 140° C. to 240° C. at a rate of 4° C./minute. At the time of extraction, heptadecanoic methyl ester is added as an internal standard.
Healthy control subjects between 18 and 50 years of age were selected. Exclusion criteria included: any chronic illness known to affect nutrient absorption, body mass index (BMI) <21 or >30 kg/m^2 (generally accepted healthy adult ranges), therapy with lipid lowering drugs, diabetes mellitus (NIDDM and IDDM), disorders associated with altered energy metabolism (e.g., hypothyroidism) and disinterest in participating in all three dosing experiments. This adult age range was selected for several reasons: (a) adult subjects are likely to remain committed to all three components of the study; (b) adults will understand the need to provide reliable feedback on taste and tolerance of the test breakfast meal and the entire malabsorption test procedure; and (c) adult subjects are able to plan the experimental day for full cooperation with the multiple phlebotomy events from 0700 to 1500 hours.
Upon arrival at the study center, subjects had their weight and height measured and an experienced phlebotomist inserted a self-retaining intravenous catheter with a heparin lock for serial blood sampling. After initially drawing 2 milliliters of blood into a sterile syringe, the experimental blood sample (2 milliliters) was drawn and immediately stored in a 4-milliliter serum separator tube. Thereafter, the initial 2 milliliters of blood was infused back into the catheter followed by 2 milliliters of heparin flush. After the baseline blood samples were obtained, the subjects drank an approximately 8 to 12 ounce liquid test breakfast meal. This meal contained one to three doses of PA and THA in a random distribution. Subjects were asked to consume the test breakfast meal within five minutes. Thereafter, serial blood samples were obtained at regular intervals over a period ranging from 30 minutes to 24 hours. During the initial eight-hour period, subjects were permitted to ingest non-caloric and non-caffeinated beverages. A study protocol lunch of known fat content was provided and actual food intake was recorded. Ambulation was limited to maintain adherence to the 30 to 60 minute intervals in the blood sampling schedule. After completion of the blood sampling, the catheter was removed, a snack was offered, and the subjects were encouraged to consume a full meal. The lipid doses (mg/kg) of PA and THA used in this experiment were based on doses 10-fold higher than similar fats used to correct essential fatty acid deficiency in cystic fibrosis, and previous studies which used ^13C […] to qualitatively assess fat malabsorption in pancreatic disease (Rosenlund, M. L., et al., 1977;Pediatrics, 59:428-32; Wutzke, K. D., et al., 1999; J. Pediatr. Gastroenterol. Nutr., 29:148-54).
Four healthy control subjects were administered a dose of 30 mg/kg PA and 30 mg/kg THA in the digestible composition (a liquid breakfast shake) after a 12-hour fast. Blood was drawn at baseline before consumption of the shake and then every 30 minutes thereafter until hour 6. […]

[2] = MBT serum levels of PA and HA in subjects with CF and pancreatic insufficiency on and off pancreatic enzymes
Method: as §1
Subjects with CF and pancreatic insufficiency currently treated with pancreatic enzymes, aged greater than 8 years were recruited. Exclusion criteria included: forced expiratory volume of the lungs at 1 second (FEV1) <40%, a history of fibrosing colonopathy or significant bowel resection (>10 cm), mental retardation, significant neurological deficit, developmental disability and autism. Subjects are in their usual state of good health. This age range was selected because it includes children during active growth where information regarding degree of malabsorption leads to improved nutritional intervention and pancreatic enzyme therapy. Also, children greater than 8 years of age are mature enough to provide assent and feedback concerning acceptability and tolerance of the MBT.
In the experiments shown in FIGS. 12 through 15, three subjects with CF were given either 30 mg/kg PA and 60 mg/kg THA (2 subjects) or 30 mg/kg PA and 90 mg/kg THA (1 subject) in a digestible composition consisting of a liquid breakfast shake after a 12 hour fast. The subjects were tested while they were taking their usual doses of pancreatic enzymes and then were tested again (more than one week later) when they were not taking pancreatic enzymes. Blood was sampled at baseline and then at hourly intervals from 2 to 8 hours and then sampled again at 24 hours. Subjects were fed a prepared lunchtime meal with a known quantity of fat (80 grams). The individual results for fat absorption for the 3 subjects with CF on enzymes are presented in FIG. 12 for PA and FIG. 13 for HA. For the same 3 subjects with CF off enzymes, the results for fat absorption are presented in FIG. 14 for PA and FIG. 15 for HA.
Additional experiments were performed on six subjects with CF either on or off pancreatic enzyme treatment. The serum levels of PA and HA in these six subjects on and off pancreatic enzyme treatment are presented in FIG. 16 anf FIG. 17, respectively.

[3] = MBT absorption of PA and HA prior to Orlistat in fifteen healthy subjects; conditions: PA 2.5 grams and THA 8.0 grams, FIG. 10, 11
Description: Fifteen healthy adult subject volunteers (9 women) 18 to 50 years of age were recruited through local advertisements. Exclusion criteria included: any chronic illness known to affect nutrient absorption, body mass index (BMI) of less than 21 or greater than 30 kg/m^2 (i.e., outside of generally accepted healthy adult ranges), therapy with lipid lowering drugs, diabetes mellitus (NIDDM, IDDM) and disorders associated with altered energy metabolism (e.g., hypothyroidism). This adult age range was selected because Orlistat is FDA approved in adults. In addition, adults are able to plan the experimental days for cooperation with four days of the research study diet, outpatient 72-hour stool collection and phlebotomy requirements. […]
Subjects underwent a 12-hour fast from 2100 hours on day #1 of the study. […] Upon arrival at the study center on the morning of day #2, subjects had their weight and height measured, and an experienced phlebotomist inserted a self-retaining intravenous catheter with a heparin lock for serial blood sampling. […] The number and timing of blood samples was determined by the experiments in Example 1, and was expected to be six or fewer samples over an eight-hour or less time period. […]

[4] = four healthy control subjects, 30 mg/kg PA and 60 mg/kg THA, FIG. 3A, 4, 5A
[5] = four healthy control subjects, 30 mg/kg PA and 90 mg/kg THA, FIG. 6-8

CCCCCCCCCCCCCCC(=O)O [PA, pentadecanoic acid]
delay before rise in serum concentration ([1]; four healthy control subjects, 30 mg/kg PA and 30 mg/kg THA, liquid breakfast shake after 12-hour fast, FIG. 2): approximately half | time at which increase in serum level is evident / begins [1, 4]: ≤ 2 h | time of peak serum level [1, 4]: 6 h | time at which increase in serum level is evident [1, 5]: ≤ 2 h | time of peak serum level [1, 5]: 6 h | peak serum level ([1]; four healthy control subjects, 30 mg/kg PA and either 60 or 90 mg/kg THA oral at baseline, FIG. 1 model): approximately 4 mg/dL | time of peak serum level ([1]; four healthy control subjects, 30 mg/kg PA and either 60 or 90 mg/kg THA oral, FIG. 1 model): six | concentration at 8 h ([1]; human, serum, four healthy control subjects, 30 mg/kg PA and either 60 or 90 mg/kg THA oral, FIG. 1 model, read-out: serum level by eight hours post dose): ~10000 ng/mL | pattern of serum response ([1]; six healthy volunteers, PA 2.5 grams and THA 5.0 or 8.0 grams, FIG. 3B): increasing over the first two hours and remaining elevated through hour six | hour by which serum levels increased ([2]; subjects with CF off pancreatic enzymes): ≤ 2 h | hour by which increase in absorption was evident ([2]; subjects with CF on pancreatic enzymes): ≤ 2 h | serum levels compared with healthy control subjects ([2]; subjects with CF taking pancreatic enzymes): lower | average absorption [3]: approximately 65%

Source: US20030086869A1, “Methods and kits for diagnosing a pancreatic-based fat malabsorption disorder” (priority 2001, published 2003)
